Reference: ChEMBL document CHEMBL4477164, “Domino Synthesis of Embelin Derivatives with Antibacterial Activity” (2016)
Activity calls are given as the source filed them. No cut-off for these calls is given here.

Tests used:
Staphylococcus aureus [1] = assay: Antibacterial activity against vancomycin-intermediate/methicillin-resistant Staphylococcus aureus NRS402 assessed as bacterial growth inhibition after 24 hrs by broth dilution method; type: functional; conditions: NRS402, 24 h
Staphylococcus aureus [2] = assay: Antibacterial activity against vancomycin/methicillin-sensitive Staphylococcus aureus ATCC 25923 assessed as bacterial growth inhibition after 24 hrs by broth dilution method; type: functional; conditions: ATCC 25923, 24 h
Pseudomonas aeruginosa = assay: Antibacterial activity against Pseudomonas aeruginosa assessed as bacterial growth inhibition after 24 hrs by broth dilution method; type: functional, organism-based
Escherichia coli = assay: Antibacterial activity against Escherichia coli assessed as bacterial growth inhibition after 24 hrs by broth dilution method; type: functional, organism-based

In the case of CCCCCCCCCCCC1=C(O)C(=O)C2=C(OC(C)(C)[C@H]3CC[C@H](C)C[C@H]23)C1=O, the MIC (Staphylococcus aureus [1]) is reported as 1 µM, the MIC (Staphylococcus aureus [2]) is reported as 8 µM and the Activity (Pseudomonas aeruginosa) is reported as “inactive”. For the same compound, the Activity (Escherichia coli) was “inactive”.
In the case of CCCCCCCCCCCC1=C(O)C(=O)C([C@H]2[C@H](C)CC[C@@H]2C(C)(C)OCC)=C(O)C1=O (racemic), the MIC (Staphylococcus aureus [1]) is reported as over 128 µM, the MIC (Staphylococcus aureus [2]) is reported as over 128 µM and the Activity (Pseudomonas aeruginosa) is reported as “inactive”. The Activity (Escherichia coli) was “inactive”.
With CCCCCCCCCCCC1=C(O)C(=O)C2=C(OC(C)(C)[C@H]3CC[C@@H](C)[C@H]23)C1=O (racemic) the MIC (Staphylococcus aureus [1]) was 4 µM, the MIC (Staphylococcus aureus [2]) was 64 µM and the Activity (Pseudomonas aeruginosa) was “inactive”. For the same compound, the Activity (Escherichia coli) was “inactive”.
In the case of CCCCCCCCCCCC1=C(O)C(=O)C2=C(OC(C)(C)[C@@H]3COc4ccc5ccccc5c4[C@H]23)C1=O (racemic), the MIC (Staphylococcus aureus [1]) is reported as over 128 µM, the MIC (Staphylococcus aureus [2]) is reported as over 128 µM and the Activity (Pseudomonas aeruginosa) is reported as “inactive”. For the same compound, the Activity (Escherichia coli) was “inactive”.
With CCCCCCCCCCCC1=C(O)C(=O)C2=C(OC(C)(C)[C@H]3COc4ccc(OCC=C(C)C)cc4[C@H]23)C1=O (relative stereo) the MIC (Staphylococcus aureus [1]) was over 128 µM, the MIC (Staphylococcus aureus [2]) was over 128 µM and the Activity (Pseudomonas aeruginosa) was “inactive”. For the same compound, the Activity (Escherichia coli) was “inactive”.
With CCCCCCCCCCCC1=C(O)C(=O)C2=C(OC(C)(C)[C@H]3COc4cc(OC)ccc4[C@H]23)C1=O (relative stereo) the MIC (Staphylococcus aureus [1]) was 4 µM, the MIC (Staphylococcus aureus [2]) was 64 µM and the Activity (Pseudomonas aeruginosa) was “inactive”. The Activity (Escherichia coli) was “inactive”.
With CCCCCCCCCCCC1=C(O)C(=O)C2=C(OC(C)(C)[C@@H]3COc4cc(OC)ccc4[C@H]23)C1=O (relative stereo) the MIC (Staphylococcus aureus [1]) was 1 µM, the MIC (Staphylococcus aureus [2]) was 8 µM and the Activity (Pseudomonas aeruginosa) was “inactive”. For the same compound, the Activity (Escherichia coli) was “inactive”.
For CCCCCCCCCCCC1=C(O)C(=O)C2=C(OC(C)(C)[C@@H]3COc4ccc(Br)cc4[C@H]23)C1=O (relative stereo), the MIC (Staphylococcus aureus [1]) was 32 µM, the MIC (Staphylococcus aureus [2]) was 16 µM and the Activity (Pseudomonas aeruginosa) was “inactive”. For the same compound, the Activity (Escherichia coli) was “inactive”.
With CCCCCCCCCCCC1=C(O)C(=O)C2=C(OC(C)(C)[C@H]3COc4ccc(Br)cc4[C@H]23)C1=O (relative stereo) the MIC (Staphylococcus aureus [1]) was 32 µM, the MIC (Staphylococcus aureus [2]) was 16 µM and the Activity (Pseudomonas aeruginosa) was “inactive”. For the same compound, the Activity (Escherichia coli) was “inactive”.
In the case of CCCCCCCCCCCC1=C(O)C(=O)C2=C(OC(C)(C)[C@H]3COc4ccc(Cl)cc4[C@H]23)C1=O (relative stereo), the MIC (Staphylococcus aureus [1]) is reported as 2 µM, the MIC (Staphylococcus aureus [2]) is reported as 4 µM and the Activity (Pseudomonas aeruginosa) is reported as “inactive”. For the same compound, the Activity (Escherichia coli) was “inactive”.
For CCCCCCCCCCCC1=C(O)C(=O)C2=C(OC(C)(C)[C@@H]3COc4ccc(OCC=C(C)C)cc4[C@H]23)C1=O (relative stereo), the MIC (Staphylococcus aureus [1]) was over 128 µM, the MIC (Staphylococcus aureus [2]) was over 128 µM and the Activity (Pseudomonas aeruginosa) was “inactive”. The Activity (Escherichia coli) was “inactive”.
In the case of CCCCCCCCCCCC1=C(O)C(=O)C2=C(OC(C)(C)[C@@H]3COc4ccc(Cl)cc4[C@H]23)C1=O (relative stereo), the MIC (Staphylococcus aureus [1]) is reported as 1 µM, the MIC (Staphylococcus aureus [2]) is reported as 4 µM and the Activity (Pseudomonas aeruginosa) is reported as “inactive”. The Activity (Escherichia coli) was “inactive”.
In the case of CCCCCCCCCCCC1=C(O)C(=O)C=C(O)C1=O [EMBELIN], the MIC (Staphylococcus aureus [1]) is reported as 16 µM, the MIC (Staphylococcus aureus [2]) is reported as 32 µM and the Activity (Pseudomonas aeruginosa) is reported as “inactive”. The Activity (Escherichia coli) was “inactive”.
Compound C/C(=C\C(=O)OCCCCCCCCC(=O)O)C[C@@H]1OC[C@H](C[C@@H]2O[C@H]2[C@@H](C)[C@H](C)O)[C@@H](O)[C@H]1O [MUPIROCIN] has an MIC (Staphylococcus aureus [1]) of under 1 µg/mL and an MIC (Staphylococcus aureus [2]) of under 1 µg/mL.
Cc1onc(-c2ccccc2)c1C(=O)N[C@@H]1C(=O)N2[C@@H]1SC(C)(C)[C@@H]2C(=O)O [OXACILLIN] was tested, and the MIC (Staphylococcus aureus [1]) was over 128 µg/mL and the MIC (Staphylococcus aureus [2]) was under 1 µg/mL.
CN[C@H](CC(C)C)C(=O)N[C@H]1C(=O)N[C@@H](CC(N)=O)C(=O)N[C@H]2C(=O)N[C@H]3C(=O)N[C@H](C(=O)N[C@H](C(=O)O)c4cc(O)cc(O)c4-c4cc3ccc4O)[C@H](O)c3ccc(c(Cl)c3)Oc3cc2cc(c3O[C@@H]2O[C@H](CO)[C@@H](O)[C@H](O)[C@H]2O[C@H]2C[C@](C)(N)[C@H](O)[C@H](C)O2)Oc2ccc(cc2Cl)[C@H]1O [VANCOMYCIN] was tested, and the MIC (Staphylococcus aureus [2]) was under 1 µg/mL.
